Literature values in US6368613B1, “Use of fluorocarbons for diagnosis and treatment of articular disorders” (Alliance Pharmaceutical Corp., priority 1996, dated 2002).
Marks after values point to notes of the source that are not given here.

conditions: in octanol/pH 7.4 isotonic phosphate buffer at 37° C. (marked a)

Structure (SMILES) | Log Po/w | Po/w
CCc1cc2c(s1)N(C)C(=O)CN=C2c1ccccc1Cl [clotiazepam] | 3.49^a | 3.06 × 10^3
CN(C)CCCN1c2ccccc2CCc2ccc(Cl)cc21 [clomipramine] | 3.58^a | 3.80 × 10^3
CC(C)=CCN1CCC2(C)c3cc(O)ccc3CC1C2C (centres unmarked) [pentazocin] | 2.18^a | 150
CCCCCC(=O)OCCOCn1cnc2c(=O)[nH]c(N)nc21 [hexanoyl acyclovir] | – | 8.58
OC(CCN1CCCCC1)(c1ccccc1)C1CCCCC1 (centres unmarked) [trihexyphenidyl] | 3.17^a | 1.47 × 10^3
CCCCC(=O)OCCOCn1cnc2c(=O)[nH]c(N)nc21 [valeryl acyclovir] | – | 2.01
CC(CN1c2ccccc2Sc2ccccc21)N(C)C (centres unmarked) [promethazine] | 3.10^a | 1.27 × 10^3

same assay, conditions: octanol/water partition coefficient

Structure (SMILES) | Log Po/w | Po/w
CCCCN1CCCCC1C(=O)Nc1c(C)cccc1C (centres unmarked) [bupivacaine] | 1.45 | 28.2
C[C@]12CC[C@H]3[C@@H](CCC4=CC(=O)CC[C@@]43C)[C@@H]1CC[C@@H]2O [C-testosterone, testosterone] | 3.3 | 2.00 × 10^3
CCCCC(CC)COC(=O)c1ccc(N(C)C)cc1 (centres unmarked) [C-padimate-o, padimate-o] | 6.6 | 3.98 × 10^6
Clc1cccc(Cl)c1N=C1NCCN1 [H-clonidine, clonidine] | 1.4 | 25.1
FC(F)(F)C(Cl)Br (centres unmarked) [halothane] | 2.30 | 2.00 × 10^2
COc1ccc(C(=O)CC(=O)c2ccc(C(C)(C)C)cc2)cc1 [H-parsol 1789, parsol 1789] | 6.7 | 5.0 × 10^6
c1ccc2cc3ccccc3cc2c1 [C-anthracene, anthracene] | 4.5 | 3.16 × 10^4
CCCCNc1ccc(C(=O)OCCN(C)C)cc1 [tetracaine] | 1.90 | 79.4
CC(=O)[C@@]1(O)CC[C@H]2[C@@H]3C[C@H](C)C4=CC(=O)C=C[C@]4(C)[C@@]3(F)[C@@H](O)C[C@@]21C [H -fluorornetholone, fluorornetholone] | 2.1 | 1.26 × 10^2
CC/C(=C(/CC)c1ccc(O)cc1)c1ccc(O)cc1 [H -diethylstilbesterol, diethylstilbesterol] | 5.1 | 1.26 × 10^5
CCCCCCCCCCCC(=O)N1CCCCCC1 [C-hexamethylenelauramide, hexamethylenelauramide] | 7.3 | 2.00 × 10^7
O=C1CN=C(c2ccccc2)c2cc([N+](=O)[O-])ccc2N1 [nitrazepam] | 2.21 | 162

same assay, conditions: pH 7.4

Structure (SMILES) | Log Po/w
CCCCCC(=O)OCCOCn1cnc2c(=O)[nH]c(N)nc21 [hexanoyl acyclovir] | 0.93^a
CCCCC(=O)OCCOCn1cnc2c(=O)[nH]c(N)nc21 [valeryl acyclovir] | 0.30^a
